Results on six compounds are retold here after US20040053966A1, “Chemical derivatives and their application as antitelomerase agent” (Aventis Pharms S.A., priority 1999, published 2004).

Broadly, the IC50 is the midpoint of a concentration-inhibition curve.

The test system of experiment [1] is G-quadruplex of oligonucleotide GGGTTAGGGTTAGGGTTAGGG (3.5 repeats of the human telomeric motif). In words: G-quadruplex stabilizing activity, fluorescence Tm (FAM+DABCYL oligonucleotide). Type of experiment: binding. Particulars: test product 1 μM, oligonucleotide 0.2 μM, 0.1 M LiCl, 10 mM cacodylate pH 7.6; reference without product 44° C. The text has this: The G-quadruplex stabilizing activity may be determined by a method using the formation of a complex with fluorescein of which the experimental protocol is described below. Oligonucleotides […] The oligonucleotide FAM+DABCYL carries the catalogue reference OL-0371-0802. It has the sequence: […] The fluorescein is attached to the 5' end, the DABCYL to the 3' end, by the chemical arms described by Eurogentec. The concentration of the samples is checked by spectrophotometry, recording the absorbance spectrum between 220 and 700 nm and using the molar extinction coefficient provided by the supplier. Buffers All the experiments were carried out in a 10 mM sodium cacodylate buffer pH 7.6 containing 0.1 M lithium chloride (or sodium chloride). The absence of fluorescent contamination in the buffer was checked beforehand. The fluorescent oligonucleotide is added at the final concentration of 0.2 μM. Study of Fluorescence All the measurements of fluorescence were carried out on a Spex Fluorolog DMlB apparatus, using an excitation line width of 1.8 nm and an emission line width of 4.5 nm. The samples are placed in a microquartz cuvette of 0.2×1 cm. The temperature of the sample is controlled by an external water bath. The oligonucleotide alone was analysed at 20, 30, 40, 50, 60, 70 and 80° C. The emission spectra are recorded using an excitation wavelength of 470 nm. The excitation spectra are recorded using either 515 nm or 588 nm as emission wavelength. The spectra are corrected for the response of the instrument by reference curves. A high extinction (80-90%) of the fluorescence of fluorescein at room temperature is observed, in agreement with an intramolecular folding of the oligonucleotide at 20° C. in the form of a G-quadruplex, which induces juxtaposition of its [NT] ends which are respectively linked to fluorescein and to DABCYL. This juxtaposition causes an already-described phenomenon of extinction of fluorescence which is used for “molecular beacons”. Fluorescence Tm: […] The samples are then allowed to incubate for at least 1 hour at 20° C. before each measurement. The use of longer incubation times (up to 24 hours) has no influence on the result obtained. Each experiment allows the measurement of only one sample. The latter is first incubated at an initial temperature of 20° C., heated to 80° C. over 38 minutes, left for 5 minutes at 80° C. and then cooled to 20° C. over 62 minutes. During this time, the fluorescence is measured simultaneously at two emission wavelengths (515 nm and 588 nm) using 470 nm as excitation wavelength. A measurement is carried out every 30 seconds. The temperature of the water bath is recorded in parallel, and the fluorescence profile as a function of the temperature is reconstituted from these values. The fluorescence profiles are then normalized between 20° C. and 80° C., and the temperature for which the intensity of emission at 515 nm is the mean of those at high and low temperature is called Tm. Under these conditions, the Tm of the reference sample without addition of product is 44° C. in a lithium chloride buffer. This temperature is increased to more than 55° C. in a sodium chloride buffer. The addition of a G-quadruplex-stabilizing compound induces an increase in the Tm. This increase is judged to be significant if it is greater than […].

The test system of experiment [2] is A549 cells. Nature of the experiment: Cytotoxic activity on human tumour line A549 (neutral red). Type of experiment: cell-based. Particulars: Homo sapiens, A549, 96 h, 96 hours incubation, read-out: Cytotox. A549 IC50. The procedure: The Cytotoxic Biological Activity on Human Tumour Lines is Determined According to the Following Experimental Protocol:
The cells at the exponential growth phase are trypsinized, washed in 1× PBS and are inoculated in 96-well microplates (Costar) in an amount of 4×10^4 cells/ml for A549 and of 1.5×10^4 cells/ml (0.2 ml/well) and then incubated for 96 hours in the presence of variable concentrations of product to be studied (10, 1, 0.1 and 0.01 μg/ml, each point in quadruplicate). 16 hours before the end of the incubation, 0.02% final of neutral red is added to each well. At the end of the incubation, the cells are washed with 1× PBS and lysed with 1% sodium lauryl sulphate. The cellular incorporation of the dye, which reflects cellular growth, is evaluated by spectrophotometry at a wavelength of 540 nm for each sample with the aid of a Dynatech MR5000 reading apparatus.
(compound value−blank value/cell control value−blank value)×100.

Experiment [3] concerns human telomerase (HL60 cell extract). Nature of the experiment: Antitelomerase activity, TRAP (extension of oligonucleotide TS and PCR amplification). The format is biochemical. The conditions noted are these: telomerase extract from HL60 cells.

Turning to `CSc1nc(Nc2ccc3nc(C)cc(N)c3c2)nc(Nc2ccc3nc(C)cc(N(C)C)c3c2)n1` [Example 18-3], in experiment [1], the “G4 Tm” value was 57 °C. The results for the IC50 in experiment [2] and in experiment [3] were 10 µM and 0.34 µM, respectively.
As for `CSc1nc(Nc2ccc(C#N)cc2)nc(Nc2ccc3nc(C)cc(N)c3c2)n1` [Example 18-7], the “G4 Tm” value in experiment [1] was 51 °C. Further, the IC50 in experiment [2] turned out to be 8 µM; in experiment [3], 3.3 µM.
Take `COc1ccc2nccc(Nc3nc(Nc4ccc5nc(C)cc(N)c5c4)nc(SC)n3)c2c1` [Example 18-9]: the “G4 Tm” value in experiment [1] was 51 °C. For the same compound, the IC50 is 9.5 µM in experiment [2] and 3.4 µM in experiment [3].
As to `CSc1nc(Nc2ccc3nc[nH]c3c2)nc(Nc2ccc3nc(C)cc(N)c3c2)n1` [Example 18-10], the “G4 Tm” value in experiment [1] worked out at 49 °C. The IC50 is 10 µM in experiment [2] and 3.3 µM in experiment [3].
Turning to `CCn1c2ccccc2c2cc(Nc3nc(Nc4ccc5nc(C)cc(N)c5c4)nc(SC)n3)ccc21` [Example 18-11], the “G4 Tm” value in experiment [1] was 48 °C. The IC50 was found to be 1.3 µM in experiment [2] and 3.3 µM in experiment [3].
For the compound `CCN(CC)c1nc(Nc2ccc3ncccc3c2)nc(Nc2ccc3nc(C)cc(N)c3c2)n1` [Example 19-1], the “G4 Tm” value in experiment [1] was determined as 58 °C. Further, the half-inhibitory concentration (IC50) in experiment [2] amounted to 1.5 µM; in experiment [3], 1 µM.
